Series [1] can be described thus: In vivo pharmacokinetic study (PK assay on SD rats). The settings on record: Sprague-Dawley, rat, plasma; for bioavailability: read-out: Oral bioavailability F. As to the method:
3. In Vivo Pharmacokinetic Study of the Compounds of the Present Disclosure
After adaptive domestication, SPF grade SD rats were administered 1 or 3 mg/kg the compounds of the present disclosure by single gavage and tail vein injection, respectively. Plasma was collected at specific time points after administration, and the concentration of compounds in plasma was detected by LC-MS/MS (AB SCIEX Qtrap4500). The PK parameters of each compound were calculated using software to reflect the pharmacokinetic properties of the compounds of the present disclosure in vivo in animals.

Series [2] deals with hemolysis of rabbit erythrocytes. The series is described as follows: Rabbit erythrocyte hemolysis assay to evaluate inhibitory activity on the bypass pathway. To be noted: Oryctolagus cuniculus, 0.5 h, 48% NHP or 26.4% NHS, 37° C. 30 min, absorbance 415 nm. The series is classed as cell-based. The text has this:
2. Rabbit Erythrocyte Hemolysis Assay to Evaluate the Inhibitory Activity of Compounds on the Bypass Pathway
Normal Human Serum, NHS (collected from healthy people), Normal Human Plasma, NHP (Shanghai Yuduo), 96-well ELISA plate (Jet Biofil), Japanese big-eared white rabbit (Wuhan WQJX), Alsever's solution (Procell), centrifuge (Thermo, PICO17), thermostatic shaker (Shanghai Fuma), destaining shaker (Beijing Liuyi), cell counter (Invitrogen, Counter Countess II) (GVB^o, EGTA, MgCl2, NaOH, microplate reader, microplate thermostatic shaker, and pipette are equivalent to those in the experiment 1).
48% NHP: 100% NHP was diluted to 48% with buffer;
26.4% NPS: 100% NHS was diluted to 26.4% with buffer;
rabbit erythrocyte suspension: blood was taken from rabbit ear marginal vein, anticoagulated with Alsever's solution at a ratio of 1:1, stored in portions at 4° C., and could be stored for 4 weeks. Before use, the suspension was centrifuged at 500 g for 5 min to discard the Alsever's solution, washed three times with an equal volume of buffer and centrifuged at 500 g for 5 min, and finally the density was adjusted to 6×10^8 cells/mL with buffer.
In the 96-well ELISA plate, the experimental group was added with 50 μL of 48% NHP or 26.4% NHS and 50 μL of compound solution; the positive control group was added with 50 μL of 48% NHP or 26.4% NHS and 50 μL of buffer containing 0.2% DMSO; the blank control group was added with 50 μL of 48% inactivated NHP or 26.4% inactivated NHS and 0.2% DMSO buffer; the H2O group was added with 100 μL of double-distilled water; incubated at 37° C. for 15 min; 20 μL of rabbit erythrocyte suspension was added to each well and incubated on a shaker at 37° C. for 30 min; centrifuged at 2000 g (3380 rpm) for 5 min, and […] of supernatant was transferred to a new 96-well ELISA plate, and the absorbance was detected at 415 nm.
The PC group represents 100% hemolysis, and the NC group represents 0% hemolysis.
IC50: half-maximal inhibitory concentration. Data were collected to calculate the log value of hemolysis percentage versus compound concentration, and IC50 values were calculated using GraphPad Prism software.

Series [3] addresses T1, complement factor D (Homo sapiens, UniProt P00746).
T1 construct: purchased Complement tech
Description: Complement factor D inhibitory activity (C3b method) in vitro screening; product Bb detected by ELISA. The series is classed as biochemical. The settings on record: factor D + factor B + factor C3b, 37° C., Bb by MicroVue Bb Plus ELISA. The text has this: 1. Complement Factor D Inhibitory Activity (C3b Method) In Vitro Screening Experiment
V-bottom plate (AXYGEN), DMSO (Sigma), MicroVue Bb Plus ELISA kit (Quidel), complement factor C3b (abbreviated as factor C3b, Complement tech), complement factor B (abbreviated as factor B, Complement tech), complement factor D (abbreviated as factor D, Complement tech), EDTA (MACKLIN), GVB^o (Complement tech), EGTA (Aladdin), MgCl2 (Aladdin), NaOH (Sinopharm), microplate reader (Molecular Devices, SpectraMax i3x), microplate thermostatic shaker (Thermo, MB100-2A), pipette (Gilson)
0.1 M Mg-EGTA: 3.8 g of EGTA, 0.9521 g of MgCl2, and 0.7 g of NaOH were weighed, and the pH was adjusted to 7.5 with NaOH. Distilled water was added to make up to 100 mL, and the mixture was filtered with a […] sterile needle filter, stored in portions at 4° C.
Buffer: 0.1 M Mg-EGTA solution was diluted 10-fold to 10 mM with GVB^o buffer; • factor B working solution: 1 mg/mL factor B solution (10.75 μM) was diluted 6.7-fold to 1.6 μM with buffer; • factor C3b working solution: 1 mg/mL factor C3b solution (5.68 μM) was diluted 5-fold to […] with buffer; • factor D working solution: 0.1 mg/mL factor D solution (4.17 μM) was diluted 1303-fold to 3.2 nM with buffer.
Note: a. The above dilution multiples are for reference only and are adjusted according to the true concentration labeled on the reagent; • b. factor B: 93 KDa, factor D: 24 KDa, factor C3b: 176 KDa.
Stop solution: An appropriate amount of EDTA powder was weighed, dissolved in a certain amount of GVB^o buffer, and the pH was adjusted to 7.5 with NaOH. The mixture was stirred until clear and prepared into a 10 mM solution.
Compound stock solution: 40 mM compound solution was diluted with DMSO into 1 mM stock solution, and the 1 mM stock solution was diluted 3-fold with DMSO at 8 points to prepare compound stock solutions of various concentrations.
Compound working solution: diluted 250-fold with buffer to obtain compound solutions of various concentrations.
In the V-bottom plate, the experimental group was added with 10 μL of factor D solution and 10 μL of compound solution; the positive control group was added with 10 μL of factor D solution and buffer containing 0.4% DMSO; the blank control group was added with […] containing 0.2% DMSO; incubated at 37° C. for 15 min; the factor B working solution and the factor C3b working solution were mixed homogeneously at a ratio of 1:1; 20 µL of the mixture was added to each well and incubated at 37° C. for 30 min; the reaction was stopped by adding 40 μL of stop solution; the production of product Bb was detected by MicroVue Bb Plus ELISA kit.
1.4.1 The required wells of the ELISA plate were taken out and allowed to return to room temperature, and the remaining ones were repackaged and stored at 4° C.;
1.4.2 the wells were washed twice with 300 μL of 1× wash buffer, and incubated for 1 min at 25° C. for the first wash;
1.4.3 samples were diluted 8-fold with complement specimen diluent, and 100 μL of sample was added to each well and incubated at 25° C. for 30 min;
1.4.4 the liquid in the wells was discarded, and the wells were washed 5 times with 300 μL of 1× wash buffer, and incubated at room temperature for 1 min for the first wash;
1.4.5 50 μL of Bb Plus Conjugate was added to each well and incubated at 25° C. for 30 min;
1.4.6 the liquid in the wells was discarded, and the wells were washed 5 times with 300 μL of 1× wash buffer, and incubated at room temperature for 1 min for the first wash;
1.4.7 100 μL of […] (Substrate Solution) was added to each well and incubated at 25° C. for 15 min;
1.4.8 100 μL of stop solution was added to each well, and the absorbance was detected at 450 nm within 30 min.
1.5.1 Inhibition rate of each drug concentration:
The PC group represents 0% inhibition rate, and the NC group represents 100% inhibition rate. […]

Setting [4] is: PO (3% DMSO + 4% Tween), 1 mg/kg.
Where [5] appears, read: PO (3% DMSO + 4% Tween), 3 mg/kg.

Like-named read-outs stand apart in the source and are kept apart here.

T1 sequence (P00746 26-253): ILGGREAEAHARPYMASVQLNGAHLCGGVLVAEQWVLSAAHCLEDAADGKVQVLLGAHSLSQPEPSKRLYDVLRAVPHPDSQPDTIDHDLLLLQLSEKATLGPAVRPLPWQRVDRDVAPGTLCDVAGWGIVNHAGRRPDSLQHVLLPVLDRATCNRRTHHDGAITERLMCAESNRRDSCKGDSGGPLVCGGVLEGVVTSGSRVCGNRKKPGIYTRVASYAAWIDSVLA

In series [1] (IV, 1 mg/kg), `NCc1cccc(-c2cc(COc3ccccc3CC(=O)O)cc(N3CCC4(CC3)CC4)c2)c1` [Compound 001, 2-(2-((3′-(aminomethyl)-5-(6-azaspiro[2.5]octan-6-yl)-[1,1′-biphenyl]-3-yl)methoxy)phenyl)acetic acid] had an AUC(0-t) of 8030 ng·h/mL, a Cmax of 1800 ng/mL and a half-life of 215 min. Moreover, the bioavailability in series [1] (PO 1 mg/kg vs IV 1 mg/kg) turned out to be 40.3%. Moreover, in series [1] (setting [4]), the AUC(0-t) stood at 3240 ng·h/mL, the Cmax amounted to 577 ng/mL and the half-life is 248 min. In series [2], this compound gave an IC50 of 41 nM. Further, the IC50 in series [3] came out at 10 nM.

In the case of `NCc1cccc(-c2cc(COc3ccccc3CC(=O)O)cc(N3CCC4(CC3)CC4)c2)c1F` [Compound 007, 2-(2-((3′-(aminomethyl)-2′-fluoro-5-(6-azaspiro[2.5]octan-6-yl)-[1,1′-biphenyl]-3-yl)methoxy)phenyl)acetic acid], the AUC(0-t) was 3290 ng·h/mL in series [1] (IV, 1 mg/kg) and 2310 ng·h/mL in series [1] (setting [4]). Further, the Cmax in series [1] (IV, 1 mg/kg) stood at 3270 ng/mL; in series [1] (setting [4]), 936 ng/mL. Also, the half-life in series [1] (IV, 1 mg/kg) was 38.4 min; in series [1] (setting [4]), 87.6 min. The bioavailability in series [1] (PO 1 mg/kg vs IV 1 mg/kg) was 70.2%. Moreover, the results for the IC50 in series [2] and in series [3] were 59 nM and 12 nM, respectively.

Regarding `NCc1nccc(-c2cc(COc3ccccc3CC(=O)O)cc(N3CCC4(CC3)CC4)c2)c1F` [Compound 023, 2-(2-((3-(2-(aminomethyl)-3-fluoropyridin-4-yl)-5-(6-azaspiro[2.5]octan-6-yl)benzyl)oxy)phenyl)acetic acid], in series [1] (IV, 1 mg/kg), the AUC(0-t) is 7060 ng·h/mL, the Cmax was 3410 ng/mL and the half-life was 275 min. Also, in series [1] (PO 3 mg/kg vs IV 1 mg/kg), the bioavailability stood at 35.3%. Moreover, in series [1] (setting [5]), the AUC(0-t) was determined as 7480 ng·h/mL, the Cmax was 1020 ng/mL and the half-life was 246 min. The compound further came in with an IC50 in series [2] of 76 nM. Further, in series [3], the IC50 worked out at 15 nM.

Take `NCc1cccc(-c2cc(COc3ccccc3CC(=O)O)cc(N3CCC4(CCNCC4)CC3)c2)c1` [Compound 033, 2-(2-((3′-(aminomethyl)-5-(3,9-diazaspiro[5.5]undecan-3-yl)-[1,1′-biphenyl]-3-yl)methoxy)phenyl)acetic acid]: the IC50 in series [2] was 3 nM; in series [3] it was 2 nM.

As for `NCc1cccc(-c2cc(COc3ccccc3CC(=O)O)cc(N3CCC4(CCCC4)C3)c2)c1` [Compound 034], the IC50 in series [2] stood at 11 nM; in series [3], 1 nM.

These data come from US20240391877A1, “COMPOUND AS INHIBITOR OF COMPLEMENT FACTOR D, AND PHARMACEUTICAL COMPOSITION AND USE THEREOF” (WUHAN CREATERNA SCIENCE AND TECHNOLOGY CO.,LTD., priority 2021, published 2024).
